Like-named read-outs stand apart in the source and are kept apart here.
Assays:
[1] = test system: peritoneal- and splenic-derived macrophages; assay: Percentage and apoptotic status (Annexin V) of peritoneal and splenic macrophages after i.p. LPS; format: in vivo, mouse
Experimental: To determine the apoptotic sensitivity of cIAP2^−/− macrophages within an LPS-induced pro-inflammatory environment, the peritoneal macrophage cell numbers before and during an endotoxin-elicited response were assessed by trypan blue exclusion, Diff Quik™ staining kit and flow cytometry (using the macrophage marker PE conjugated α-F4/80 antibody). […] However, total lymphocyte cell count numbers (B and T cells) were comparatively unaffected in both animal types (FIG. 5D). In addition, at 5 hours post LPS injection both the peritoneal and splenic macrophages from cIAP2^−/− mice stained ˜100% positive for Annexin V (Table 5). Therefore, peritoneal and splenic macrophages from cIAP2^−/− mice undergoing LPS-induced endotoxic shock were highly sensitive to apoptotic stimuli compared to control littermates, in vivo. Liver-derived macrophages are key mediators of LPS-induced endotoxic shock (7, 12). Therefore, to further investigate the survival status of macrophages within LPS treated cIAP2^−/− mice we examined cell count levels of liver-derived macrophages within liver sections. Macrophage cell count numbers within both cIAP2^−/− and control mice were similar at 2 hours post-IP LPS treatment (FIG. 6A), 235+/−35 and 271+/−29, respectively (n=5, average of 3 sections (average of 5 fields per section) per mouse, P<0.01). However, at the 6 hour time point (FIG. 6B), there was a precipitous drop of liver-derived macrophages of the cIAP2^−/− mice, 21+/−12 versus that of the littermates, 148+/−19 (n=5, average of 3 sections (average of 5 fields per section) per mouse, P<0.01). Therefore, like peritoneal and splenic macrophages, the liver-derived macrophages from cIAP2^−/− are highly sensitive to LPS in vivo.
Adult 4-6 week old mice (n=6) were injected i.p. with LPS (35 mg LPS/kg) at time 0 and 5 hours the mice were euthanized and the cells of the peritoneum were collected and stained to determine macrophage, T and B cell percentages. The macrophages were also stained with FITC labeled Annexin V (Immunotech, Marseille, France) to determine apoptotic status.
T and B cells were isolated from mouse lymphoid tissue (spleen) by first mincing and then pressing the tissue through a 10 μm metal mesh and were then counted by using trypan blue exclusion method. Macrophages were harvested from mice using an inter-peritoneal (i.p.) lavage ([…]: 5% FCS, 50 μM β-mercaptoethanol, […] L-glutamine, penicillin and streptomycin, at 4° C.) and washed once (centrifuged at 800 Xg for 15 min) and resuspended at ˜2×10^7 cells/ml for peritoneal macrophages. Subsequently, peritoneal macrophages were layered on 5 ml of room temperature Lympholyte-M (CedarLane, Canada) and centrifuged at 1500×g for 20 min at room temperature. For splenic macrophages 3 ml of the minced and pressed tissue (˜2×10^7 splenocytes/ml) was layered on 5 ml of room temperature Lympholyte-M (CedarLane, Canada) and centrifuged at 1500×g for 20 min at room temperature. Subsequently, either peritoneal or spleen-derived macrophages were collected from the interface layer, washed twice with complete DMEM and re-suspend in 1 ml complete DMEM. The resulting cells were then counted by using typan blue exclusion and Diff Quik™ Stain Kit (IMEB INC, San Marcos, Calif.). Cells (10^5-10^6) were incubated with the following conjugated monoclonal antibodies: α-CD3ε-flourescein isohiocyanate (FITC), CD4-phycoerythin (PE), CD8α-Cy-Chrome, CD69-PE; B229-FITC, B220-PE, CD11b-Cy-Chrome, (Pharmigen) F4/80-FITC and F4/80PE (Cedarlane Laoratories, Hornby, ON, Canada). Flow cytometric analyses were performed on a Coulter XL cytometer (Coulter, Canada). Concentrations of TNF-α and IL-1β, in primary tissue culture supernatants were determined by ELISA kit (R&D Systems).

peritoneal macrophages = assay: TNF-α and IL-1β production of cultured peritoneal macrophages exposed to LPS (ELISA); format: cell-based, mouse; settings: cIAP2−/− peritoneal macrophages; LPS 0.1 to 1000 ng/ml; 10 and 24 h
Experimental: Spleen- and peritoneal-derived macrophage cell count numbers are shown (A) for cIAP2^−/−, cIAP2^+/− and cIAP2^+/+ mice (n=10). Both cIAP2^−/− and littermate control-derived macrophages stained for the LPS binding surface receptor CD14 (B). The proliferation of B cells for cIAP2^−/− mice and littermate controls of cIAP2^+/+ after culturing with the indicated range of LPS doses (n=6) (C). Cultured macrophages from cIAP2^−/− or littermate control cIAP2^+/+ mice were exposed to LPS for 10 h and subsequently IL-1β (D) or TNF-α (E) levels were measured by ELISA (n=6). Additionally, macrophages were exposed to the indicated range of LPS doses for 24 h and IL-1β (F) or TNF-α (G) levels were determined (n=6). Results are mean±s.d. in triplicate per mouse, P<0.01
This dysfunction may be correlated to a reduced initial number of macrophages, to a block in the LPS-induced signaling pathway, or to an increased apoptotic susceptibility of the cIAP2^−/− macrophages. […]
T and B cells were isolated from mouse lymphoid tissue (spleen) by first mincing and then pressing the tissue through a 10 μm metal mesh and were then counted by using trypan blue exclusion method. […] The resulting cells were then counted by using typan blue exclusion and Diff Quik™ Stain Kit (IMEB INC, San Marcos, Calif.). […] Concentrations of TNF-α and IL-1β, in primary tissue culture supernatants were determined by ELISA kit (R&D Systems).

[2] = test system: cIAP2−/− and control mice
Description: In addition, we exposed cIAP2^−/− mice to a second mode of LPS-induced toxicity, where treatment with D-galactosamine (DGLBN) sensitized mice to endotoxic shock.

[3] = cIAP2+/+ mice, Peritoneal cavity, 0 hrs post-LPS
[4] = cIAP2+/+ mice, Peritoneal cavity, 5 hrs post-LPS
[5] = cIAP2+/+ mice, Spleen, 0 hrs post-LPS
[6] = cIAP2+/+ mice, Spleen, 0 hrs post-LPS (first Spleen line)
[7] = cIAP2−/− mice, Peritoneal cavity, 0 hrs post-LPS
[8] = cIAP2−/− mice, Peritoneal cavity, 5 hrs post-LPS
[9] = cIAP2−/− mice, Spleen, 0 hrs post-LPS
[10] = cIAP2−/− mice, Spleen, 0 hrs post-LPS (first Spleen line)

## lipopolysaccharide [LPS]
[1]; [3]
  Percent apoptotic: 10 ± 2%
  Percent macrophage: 54 ± 29%
[1]; [4]
  Percent apoptotic: 66 ± 8%
  Percent macrophage: 31 ± 17%
[1]; [5]
  Percent apoptotic: 46 ± 8%
  Percent macrophage: 28 ± 5%
[1]; [6]
  Percent apoptotic: 5 ± 3%
  Percent macrophage: 33 ± 15%
[1]; [7]
  Percent apoptotic: 15 ± 3%
  Percent macrophage: 41 ± 24%
[1]; [8]
  Percent apoptotic: 100 ± 3%
  Percent macrophage: 8 ± 11%
[1]; [9]
  Percent apoptotic: 98 ± 4%
  Percent macrophage: 24 ± 8%
[1]; [10]
  Percent apoptotic: 2 ± 5%
  Percent macrophage: 24 ± 11%
[1]; cIAP2−/− mice, peritoneal and splenic macrophages, 5 hours post LPS injection
  Macrophages positive for Annexin V (apoptotic): ~100%
Peritoneal macrophages
  TNF-α and IL-1β levels relative to littermate controls: generated comparable levels of TNF-α and IL-1β
[2]; LPS with DGLN, cIAP2−/− mice and control littermates
  Time to demise of the mice: < 3 h
[2]; cIAP2+/+ mice, LPS 0.5 μg/kg with D-galactosamine 0.6 g/kg i.p.
  Survival: 6/6
[2]; cIAP2+/+ mice, LPS 1 μg/kg with D-galactosamine 0.6 g/kg i.p.
  Survival: 6/6
[2]; cIAP2+/+ mice, LPS 5 μg/kg with D-galactosamine 0.6 g/kg i.p.
  Survival: 2/6
[2]; cIAP2+/+ mice, LPS 10 μg/kg with D-galactosamine 0.6 g/kg i.p.
  Survival: 0/6
[2]; cIAP2+/+ mice, LPS 20 μg/kg with D-galactosamine 0.6 g/kg i.p.
  Survival: 0/6
[2]; cIAP2−/− mice, LPS 0.5 μg/kg with D-galactosamine 0.6 g/kg i.p.
  Survival: 6/6
[2]; cIAP2−/− mice, LPS 1 μg/kg with D-galactosamine 0.6 g/kg i.p.
  Survival: 6/6
[2]; cIAP2−/− mice, LPS 5 μg/kg with D-galactosamine 0.6 g/kg i.p.
  Survival: 2/6
[2]; cIAP2−/− mice, LPS 10 μg/kg with D-galactosamine 0.6 g/kg i.p.
  Survival: 0/6
[2]; cIAP2−/− mice, LPS 20 μg/kg with D-galactosamine 0.6 g/kg i.p.
  Survival: 0/6

From patent publication US20060123501A1, “Method for treating inflammatory disorders” (priority 2004, published 2006)
